Assay results: ChEMBL document CHEMBL2434896, “Carbonic anhydrase inhibitors. Synthesis of heterocyclic 4-substituted pyridine-3-sulfonamide derivatives and their inhibition of the human cytosolic isozymes I and II and transmembrane tumor-associated isozymes IX and XII” (Eur J Med Chem, 2013)
Activity calls are given as the source filed them. The rule behind the calls is not given here.

How the values were obtained:
SF-268 = experiment: Growth inhibition of human SF268 cells at 10 uM after 48 hrs by sulforhodamine B assay; format: functional; settings: for inhibition of growth at 10 µM: SF-268, 48 h, read-out: GI
HT-29 = experiment: Growth inhibition of human HT-29 cells at 10 uM after 48 hrs by sulforhodamine B assay; format: functional; settings: for inhibition of growth at 10 µM: HT-29, 48 h, read-out: GI
[1] = (§1) Growth inhibition of human EKVX cells at 10 uM after 48 hrs by sulforhodamine B assay; format: functional; settings: read-out: GI
K562 = experiment: Growth inhibition of human K562 cells at 10 uM after 48 hrs by sulforhodamine B assay; format: functional; settings: for inhibition of growth at 10 µM: K562, 48 h, read-out: GI
CCRF-CEM = experiment: Growth inhibition of human CCRF-CEM cells at 10 uM after 48 hrs by sulforhodamine B assay; format: functional; settings: for inhibition of growth at 10 µM: read-out: GI
Carbonic anhydrase 9 = Carbonic anhydrase 9 (Homo sapiens, UniProt Q16790); experiment: Inhibition of human carbonic anhydrase 9 after 15 mins by stopped flow CO2 hydration assay
Hs-578T = experiment: (§2) Growth inhibition of human Hs 578T cells at 10 uM after 48 hrs by sulforhodamine B assay; format: functional
UO-31 = experiment: Growth inhibition of human UO31 cells at 10 uM after 48 hrs by sulforhodamine B assay; format: functional; settings: UO-31, 48 h, read-out: GI
RXF 393 = experiment: Growth inhibition of human RXF393 cells at 10 uM after 48 hrs by sulforhodamine B assay; format: functional
ACHN = experiment: Growth inhibition of human ACHN cells at 10 uM after 48 hrs by sulforhodamine B assay; format: functional; settings: for inhibition of growth at 10 µM: read-out: GI
OVCAR-4 = experiment: Growth inhibition of human OVCAR4 cells at 10 uM after 48 hrs by sulforhodamine B assay; format: functional; settings: for inhibition of growth at 10 µM: OVCAR-4, 48 h, read-out: GI
OVCAR-3 = experiment: Growth inhibition of human OVCAR3 cells at 10 uM after 48 hrs by sulforhodamine B assay; format: functional; settings: for inhibition of growth at 10 µM: OVCAR-3, 48 h, read-out: GI
M14 = experiment: Growth inhibition of human M14 cells at 10 uM after 48 hrs by sulforhodamine B assay; format: functional; settings: for inhibition of growth at 10 µM: M14, 48 h, read-out: GI
[2] = Growth inhibition of human HCC2998 cells at 10 uM after 48 hrs by sulforhodamine B assay; format: functional; settings: HCC 2998, 48 h, read-out: GI
[3] = Growth inhibition of human NCI-ADR-RES cells at 10 uM after 48 hrs by sulforhodamine B assay; format: functional; settings: read-out: GI
HOP-92 = experiment: Growth inhibition of human HOP92 cells at 10 uM after 48 hrs by sulforhodamine B assay; format: functional; settings: for inhibition of growth at 10 µM: HOP-92, 48 h, read-out: GI
EKVX = experiment: as §1; format: functional
OVCAR-8 = experiment: Growth inhibition of human OVCAR8 cells at 10 uM after 48 hrs by sulforhodamine B assay; format: functional; settings: for inhibition of growth at 10 µM: OVCAR-8, 48 h, read-out: GI
[4] = as §2; format: functional; settings: read-out: GI

Row | SMILES | growth inhibition (GI) (SF-268) | inhibition of growth at 10 µM (HT-29) [%] | inhibition of growth at 10 µM [1] [%] | inhibition of growth at 10 µM (K562) [%] | inhibition of growth at 10 µM (CCRF-CEM) [%] | Ki (Carbonic anhydrase 9) [nM] | growth inhibition (GI) (Hs-578T) | inhibition of growth at 10 µM (UO-31) [%] | growth inhibition (GI) (RXF 393) | inhibition of growth at 10 µM (ACHN) [%] | inhibition of growth at 10 µM (OVCAR-4) [%] | growth inhibition (GI) (OVCAR-3) | inhibition of growth at 10 µM (M14) [%] | inhibition of growth at 10 µM [3] [%] | inhibition of growth at 10 µM (HOP-92) [%] | growth inhibition (GI) (EKVX) | growth inhibition (GI) (ACHN) | inhibition of growth at 10 µM (OVCAR-8) [%] | growth inhibition (GI) (M14) | growth inhibition (GI) (OVCAR-4) | also measured
1 | NS(=O)(=O)c1cnccc1N1CCN(c2ccc(Cl)cc2)CC1 | inactive | 7 | 11 | 28 | 17 | 135 | inactive | 20 | inactive | 6 | 28 | inactive | 1 |  |  |  |  |  |  |  | 
2 | NS(=O)(=O)c1cnccc1N1CCN(c2ccc(Cl)c(Cl)c2)CC1 |  | 29 | 30 | 65 | 47 | 341 | inactive | 31 |  | 24 | 65 |  | 22 | 25 |  |  |  |  |  |  | inhibition of growth at 10 µM (SF-268): 2%; inhibition of growth at 10 µM [2]: 17%; inhibition of growth at 10 µM (RXF 393; RXF 393, 48 h, read-out: GI): 8%; inhibition of growth at 10 µM (OVCAR-3): 30%
3 | CCc1cc(CC)n(-c2ccncc2S(N)(=O)=O)n1 | inactive | 1 |  |  | 4 | 31.7 | inactive | 8 | inactive |  | 4 |  |  |  | 1 | inactive | inactive | 9 | inactive |  | inhibition of growth at 10 µM [2]: 6%; growth inhibition (GI) (K562): inactive; inhibition of growth at 10 µM (OVCAR-3): 1%
4 | NS(=O)(=O)c1cnccc1N1CCN(c2ncccn2)CC1 |  |  |  |  | 10 | 78.3 | inactive | 15 | inactive |  |  | inactive |  |  |  | inactive | inactive |  | inactive | inactive | inhibition of growth at 10 µM (SF-268): 5%; growth inhibition (GI) (HT-29): inactive; growth inhibition (GI) (HOP-92): inactive; growth inhibition (GI) (K562): inactive; growth inhibition (GI) (OVCAR-8): inactive
5 | Cc1ccc(C)c(N2CCN(c3ccncc3S(N)(=O)=O)CC2)c1 | inactive | 9 |  |  |  | 548 | inactive | 15 | inactive | 6 |  | inactive | 1 |  |  | inactive |  | 4 |  | inactive | growth inhibition (GI) (CCRF-CEM): inactive
6 | COc1ccccc1N1CCN(c2ccncc2S(N)(=O)=O)CC1 | inactive | 4 | 3 | 9 | 7 | 652 | inactive | 10 | inactive |  | 2 | inactive |  |  |  |  | inactive |  | inactive |  | growth inhibition (GI) (HOP-92): inactive; growth inhibition (GI) (OVCAR-8): inactive
7 | NS(=O)(=O)c1cnccc1N1CCN(c2ccccn2)CC1 | inactive |  | 1 | 4 | 5 | 113 |  | 11 | inactive |  |  | inactive |  | 6 | 11 |  | inactive | 12 | inactive | inactive | growth inhibition (GI) (HT-29): inactive; inhibition of growth at 10 µM [4]: 20%
8 | NS(=O)(=O)c1cnccc1N1CCN(Cc2ccc3c(c2)OCO3)CC1 | inactive |  |  |  |  | 89.4 | inactive | 13 | inactive |  |  | inactive | 2 | 3 |  | inactive | inactive |  |  | inactive | growth inhibition (GI) (HT-29): inactive; growth inhibition (GI) (HOP-92): inactive; growth inhibition (GI) (K562): inactive; growth inhibition (GI) (CCRF-CEM): inactive; growth inhibition (GI) (OVCAR-8): inactive
9 | NS(=O)(=O)c1cnccc1N1CCC(Cc2ccccc2)CC1 | inactive | 2 |  | 9 | 3 | 136 | inactive | 21 | inactive |  | 2 | inactive |  |  | 39 | inactive | inactive | 1 | inactive |  | 
